Data reported in patent US20150374705A1, “Substances for treatment or relief of pain” (Shanghai Institues for Biological Sciences, priority 2012, published 2015).
Entries after “also recorded” stand apart in the source; their conditions may differ. Where two headings read alike, the source gives them in different places.

Legend:
[1] = target: T1, Human recombinant α5-GABAA receptor (Homo sapiens, UniProt P18507+P31644); assay: Electrophysiological inverse agonist efficacy on GABA-induced current; type: cell-based; conditions: change of GABA-induced current; negative = inhibition
T1 construct: expressed in transfected cells; host or cells: 293 cell line
Method: (§1) Different subunits of GABAA receptor were expressed in cell lines, including human kidney epithelial cell line, 293 cell line or L(tk−) cell line. The cells were cultured in medium, and such cells were used as the cellular model for screening drugs to suppress pain. a subunit, β subunit and γ subunit are indispensable for one complete functional GABAA receptor.
(a) simultaneously expressing α5 subunit (for the protein sequence, see GenBank accession number NM_001165037.1), β3 subunit (for the protein sequence, see GenBank accession number NM_021912.4) and γ2 subunit (for the protein sequence, see GenBank accession number NM_198904.2) in 293 cell line, forming the GABAA receptor containing α5 subunit;
(§2) The inventors used electrophysiological methods to measure the inverse agonist efficacy of the substances to be measured, see the method described in literature (Ballard T M et al., RO4938581, a novel cognitive enhancer acting at GABAA alpha5 subunit-containing receptors. Psychopharmacology (Berl). 2009 January; 202 (1-3): 207-23). […] Many methods can be used by those skilled in the art to evaluate the binding capacity of the ligand of α5-GABAA receptor to the α5-GABAA receptor, including but not limiting to the method above.
(§3) Inverse agonist efficacy represents the inhibition percentage of the candidate substance on the current induced by GABA through α5-GABAA receptor=(the current intensity induced by GABA through α5-GABAA receptor with the existence of candidate substance−the current intensity induced by GABA through α5-GABAA receptor without the existence of candidate substance)/the current intensity induced by GABA through α5-GABAA receptor without the existence of candidate substance.

[2] = target: T2, Human recombinant GABAA receptor containing α3 subunit (Homo sapiens, UniProt P18507+P34903); assay: as above; type: cell-based; conditions: change of GABA-induced current; negative = inhibition
T2 construct: expressed in transfected cells; host or cells: 293 cell line
Method: as §1
(d) simultaneously expressing α3 subunit (for the protein sequence, see GenBank accession number NM_000808.3), β3 subunit and γ2 subunit in 293 cell line, forming the GABAA receptor containing α3 subunit;
as §2, §3

[3] = test system: α5-GABAA receptor in central nervous system; conditions: in vivo, Jones et al. 2006; cited from earlier work
[4] = target: T1, Human recombinant α5-GABAA receptor; conditions: Jones et al. 2006; cited from earlier work
[5] = test system: brain microvessel endothelial cells co-cultivated with astrocyte; assay: In vitro blood-brain barrier model (BBBM); type: in vitro ADME
Description: Through in vitro blood-brain barrier model (BBBM), whether the substance to be measured could effectively pass blood brain barrier was detected. In this experiment, brain microvessl endothelial cells were co-cultivated with astrocyte, and then whether the substance to be measured could effectively pass cellular membrane was detected. For detailed method, please refer to related literature (Culot M et al., An in vitro blood-brain barrier model for high throughput (HTS) toxicological screening. Toxicol In Vitro. 2008 April; 22(3):799-811).

[6] = target: T3, Human recombinant GABAA receptor containing α1 subunit (Homo sapiens, UniProt P14867+P18507); assay: Electrophysiological inverse agonist efficacy on GABA-induced current; type: cell-based; conditions: change of GABA-induced current; negative = inhibition
T3 construct: expressed in transfected cells; host or cells: 293 cell line
Method: as §1
(§4) (b) simultaneously expressing α1 subunit (GenBank accession number: NM_001127648.1), β3 subunit and γ2 subunit in 293 cell line, forming the GABAA receptor containing α1 subunit; • (c) simultaneously expressing α2 subunit (for the protein sequence, see GenBank accession number NM_000813.2), β3 subunit and γ2 subunit in 293 cell line, forming the GABAA receptor containing α2 subunit;
as §2, §3

[7] = test system: Human recombinant GABAA receptor containing α2 subunit; assay: as above; type: cell-based; conditions: change of GABA-induced current; negative = inhibition
Method: as §1, §4, §2, §3

[8] = test system: rat model of inflammatory and neuropathic pain; conditions: Munro G et al., Neuropharmacology 2011; cited from earlier work
[9] = human, Phase II, cited from earlier work
[10] = target: T4, Human recombinant GABAA receptor containing α2 subunit (α2, β3, γ2) (Homo sapiens, UniProt P18507+P47869); assay: Competitive radioligand binding ([3H]Ro-0151788) on membranes of 293 cells, Ki; conditions: human recombinant GABAA subtype containing α2; read-out: Affinity, nM (α2)
T4 construct: expressed in transfected cells; host or cells: 293 cell line
Method: as §1
In this example, the inventors established the following cellular models:
as §4
Each of the (a) to (d) above could form a GABAA receptor with complete function.
Then, the cellular membrane was extracted and the protein concentration was measured. The competitive binding of the substances to be measured and radiolabelled compounds (e.g. 1 nM [^3H]Ro-0151788) were detected respectively to calculate the Ki value of the substances to be measured, see the method described in literature (Ballard T M et al., RO4938581, a novel cognitive enhancer acting at GABAA alpha5 subunit-containing receptors. Psychopharmacology (Berl). 2009 January; 202(1-3): 207-23). If the binding inhibition constant Ki (nM) of α5-GABAA receptor with the candidate substances in experimental group is less than the Ki of the receptor containing other a subunit (α1 subunit, α2 subunit or α3 subunit), then the candidate substance is a potential drugs for preventing, relieving or treating pain. Many methods can be used by those skilled in the art to evaluate the binding capacity of the ligand of α5-GABAA receptor to the α5-GABAA receptor, including but not limiting to the method above.

Structure (SMILES)	Inverse agonist efficacy, % (α5) [1] [%]	Inverse agonist efficacy, % (α3) [2] [%]	Binding to α5-GABAA receptor in brain / inhibition of (3H)Ro-15-1788 binding in center [3]	Inhibition rate of the binding of (3H)Ro-15-1788 in center [3]	Inverse agonist effect of α5-GABAA receptor [4]	Passing blood brain barrier [5]	Inverse agonist efficacy, % (α1) [6] [%]	Inverse agonist efficacy, % (α2) [7] [%]	Effect on treating pain reported in literature [8]	Toxicity in Phase II clinical trial [9]	Toxicity in Phase II clinical trial ([9]; listed as A5I)	Ki [10] [nM]
Cn1ncnc1COc1nn2c(-c3cc(CO)on3)nncc2c1C(C)(C)C [MRK016-M3, (3-(3-tert-butyl-2-((2-methyl-2H-1,2,4-triazol-3-yl)methoxy)pyrazolo [1,5-d][1,2,4]triazin-7-yl)isoxazol-5-yl)methanol]	−52	−15	not capable of binding the α5-GABAA receptor in brain; also recorded: cannot significantly inhibit; also recorded: could hardly enter into the brain	about 12%	significant inverse agonist effect	cannot significantly pass blood brain barrier	−11	−1	–	–	–	–
Cc1cc(-c2nnc3c4ccccc4c(OCC4=CC(C)C=N4)nn23)no1 (stereo not drawn) [α5IA]	−29	4	–	–	–	–	−4	12	no effect	certain toxic problems	renal toxicity	0.58
